# Legend:
# Type in all cases: in vivo
# [1] = tested on: mechanical hyperalgesia in the Seltzer model of neuropathic pain in the rat; assay: Seltzer model, development of mechanical hyperalgesia, repeated administration of Compound A
# Source text: (§1) Two animal models of chronic neuropathic pain may be used that involve some form of peripheral nerve damage. In the Seltzer model (Seltzer et al. (1990) Pain 43: 205-218) rats are anaesthetised and a small incision made mid-way up one thigh (usually the left) to expose the sciatic nerve. The nerve is carefully cleared of surrounding connective tissues at a site near the trochanter just distal to the point at which the posterior biceps semitendinosus nerve branches off the common sciatic nerve. A 7-0 silk suture is inserted into the nerve with a ⅜ curved, reversed-cutting mini-needle, and tightly ligated so that the dorsal ⅓ to ½ of the nerve thickness is held within the ligature. The muscle and skin are closed with sutures and clips and the wound dusted with antibiotic powder. In sham animals the sciatic nerve is exposed but not ligated and the wound closed as in nonsham animals.
# (§2) In all chronic pain models (inflammatory and neuropathic) mechanical hyperalgesia is assessed by measuring paw withdrawal thresholds of both hindpaws to an increasing pressure stimulus using an Analgesymeter (Ugo-Basile, Milan). Mechanical allodynia is assessed by measuring withdrawal thresholds to non-noxious mechanical stimuli applied with von Frey hairs to the plantar surface of both hindpaws. Thermal hyperalgesia is assessed by measuring withdrawal latencies to a noxious thermal stimulus applied to the underside of each hindpaw. With all models, mechanical hyperalgesia and allodynia and thermal hyperalgesia develop within 1-3 days following surgery and persist for at least 50 days. For the assays described herein, drugs may be applied before and after surgery to assess their effect on the development of hyperalgesia, particularly approximately 14 days following surgery, to determine their ability to reverse established hyperalgesia.
# (§3) The percentage reversal of hyperalgesia is calculated as follows: [formula] In the experiments disclosed herein, Wistar rats (male) are employed in pain models described above. Rats weigh approximately 120-140 grams at the time of surgery. All surgery is performed under enflurane/O2 inhalation anaesthesia. In all cases the wound is closed after the procedure and the animal allowed to recover. In all pain models employed, after a few days in all but the sham operated animals, a marked mechanical and thermal hyperalgesia and allodynia develops in which there is a lowering of pain threshold and an enhanced reflex withdrawal response of the hind-paw to touch, pressure or thermal stimuli. […] In the majority of animals the toes of the affected hind paw are held together and the foot turned slightly to one side; in some rats the toes are also curled under. The gait of the ligated rats varies, but limping is uncommon. […] The rats tend to be very sensitive to touch and may vocalise. Otherwise the general health an condition of the rats is good.
# (§4) The effect of Compound A on mechanical hyperalgesia and allodynia is examined in the Seltzer model of neuropathic pain in the rat (Seltzer et al, 1990) as described above. With this model mechanical hyperalgesia and allodynia is induced in the ipsilateral (ligated) hindpaw approximately 1 day following surgery and persists for some weeks. Mechanical hyperalgesia is assessed by measuring paw withdrawal thresholds of both hindpaws to an increasing pressure stimulus using an Analgesymeter (Ugo-Basile, Milan). Mechanical allodynia is assessed by measuring withdrawal thresholds to non-noxious mechanical stimuli applied with von Frey hairs to the plantar surface of both hindpaws.
# Experimental Protocol: The effect of Compound A on the development of mechanical hyperalgesia is tested by administering the compound or vehicle (20% cremaphor/water) orally twice daily for 7 days starting on the day of surgery. Prior to surgery paw withdrawal thresholds of ipsilateral (ligated) and contralateral (non-ligated) paws are approximately 100 g. […]
# [2] = tested on: mechanical hyperalgesia in the Seltzer model of neuropathic pain in the rat; assay: Seltzer model, perioperative administration of Compound A on neuropathic hyperalgesia; details: for Paw withdrawal threshold: ipsilateral paw
# Source text: as §1, §2, §3, §4
# Compound A also affects the development of hyperalgesia following peri-operative dosing. […] The effect of the two doses of Compound A lasted for approximately 7 days by which time the degreee of hyperalgesia is similar to that seen in vehicle treated animals.
# All animals received administration of vehicle or compound 1 h prior to surgery (pre) and 5 h following surgery (post).
# [3] = tested on: mechanical hyperalgesia in the Seltzer model of neuropathic pain in the rat; assay: Seltzer model, established neuropathic hyperalgesia, repeated administration of Compound A; details: 3 mg/kg orally twice daily for 10 days starting 7 days after ligation
# Source text: as §1, §2, §3, §4
# Inhibition of MMP7 may also reduce established mechanical hyperalgesia. 7 days following ligation ipsilateral paw withdrawal thresholds are reduced to approximately 65 g compared to contralteral readings of approximately 100 g, indicating mechanical hyperalgesia. Compound A (3 and 30 mg/kg) or vehicle (20% cremaphor/water) is then administered orally twice daily for 10 days. […]
structure (smiles),measurement,setting,value
"CC[C@H](C(=O)NO)[C@H](C(=O)N1CCCC[C@H]1C(=O)NC(C)C)c1ccc(Cl)cc1 [Compound A, (S)-1-[(2S,3S)-2-(4-Chloro-phenyl)-3-hydroxycarbamoyl-pentanoyl]-piperidine-2-carboxylic acid isopropylamide]",ipsilateral withdrawal thresholds versus vehicle treated animals,[1]; 3 days after the end of compound administration,remain elevated above those of vehicle treated animals
same,withdrawal thresholds of contralateral paws,"[1]; contralateral (non-ligated) paw, following surgery, vehicle or compound administration, throughout the experiment",do not significantly change
same,Paw withdrawal threshold,"[1]; ipsilateral paw, 3 mg/kg orally twice daily for 7 days from day of surgery, day 1 of treatment",72.5 ± 2.8 g
same,Paw withdrawal threshold,"[1]; ipsilateral paw, 3 mg/kg orally twice daily for 7 days from day of surgery, day 2 of treatment",76.7 ± 3.1 g
same,Paw withdrawal threshold,"[1]; ipsilateral paw, 3 mg/kg orally twice daily for 7 days from day of surgery, day 3 of treatment",78.3 ± 2.5 g
same,Paw withdrawal threshold,"[1]; ipsilateral paw, 3 mg/kg orally twice daily for 7 days from day of surgery, day 4 of treatment",83.3 ± 2.8 g
same,Paw withdrawal threshold,"[1]; ipsilateral paw, 3 mg/kg orally twice daily for 7 days from day of surgery, day 5 of treatment",83.3 ± 5.7 g
same,Paw withdrawal threshold,"[1]; ipsilateral paw, 3 mg/kg orally twice daily for 7 days from day of surgery, day 7 of treatment",86.7 ± 4.8 g
same,Paw withdrawal threshold,"[1]; ipsilateral paw, 3 mg/kg orally twice daily for 7 days from day of surgery, day 10 (3 days after end of dosing)",90.0 ± 4.7 g
same,Paw withdrawal threshold,"[1]; ipsilateral paw, 3 mg/kg orally twice daily for 7 days from day of surgery, pre-surgery (baseline)",100.8 ± 2.4 g
same,Paw withdrawal threshold,"[1]; ipsilateral paw, 30 mg/kg orally twice daily for 7 days from day of surgery, day 1 of treatment",78.3 ± 2.8 g
same,Paw withdrawal threshold,"[1]; ipsilateral paw, 30 mg/kg orally twice daily for 7 days from day of surgery, day 2 of treatment",80.8 ± 4.0 g
same,Paw withdrawal threshold,"[1]; ipsilateral paw, 30 mg/kg orally twice daily for 7 days from day of surgery, day 3 of treatment",83.3 ± 4.9 g
same,Paw withdrawal threshold,"[1]; ipsilateral paw, 30 mg/kg orally twice daily for 7 days from day of surgery, day 4 of treatment",85.8 ± 4.4 g
same,Paw withdrawal threshold,"[1]; ipsilateral paw, 30 mg/kg orally twice daily for 7 days from day of surgery, day 5 of treatment",83.2 ± 3.1 g
same,Paw withdrawal threshold,"[1]; ipsilateral paw, 30 mg/kg orally twice daily for 7 days from day of surgery, day 7 of treatment",82.0 ± 5.8 g
same,Paw withdrawal threshold,"[1]; ipsilateral paw, 30 mg/kg orally twice daily for 7 days from day of surgery, day 10 (3 days after end of dosing)",86.0 ± 4.0 g
same,Paw withdrawal threshold,"[1]; ipsilateral paw, 30 mg/kg orally twice daily for 7 days from day of surgery, pre-surgery (baseline)",97.5 ± 2.1 g
same,withdrawal thresholds after repeated dosing,"[1]; ipsilateral paw, orally twice daily for 7 days from day of surgery, vehicle approximately 60 g",80 to 90 g
same,duration of the effect of the two doses,[2]; 30 mg/kg oral 1 h prior to and 5 h following surgery,approximately 7 days
same,degree of hyperalgesia (ipsilateral paw withdrawal thresholds versus vehicle),[2]; 30 mg/kg oral 1 h prior to surgery and again 5 h following surgery,significant reduction in the degree of hyperalgesia
same,Paw withdrawal threshold,"[2]; Compound A 30 mg/kg oral 1 h pre surgery + Compound A 5 h post, day 1 of study",79.2 ± 2.4 g
same,Paw withdrawal threshold,"[2]; Compound A 30 mg/kg oral 1 h pre surgery + Compound A 5 h post, day 2 of study",81.7 ± 2.1 g
same,Paw withdrawal threshold,"[2]; Compound A 30 mg/kg oral 1 h pre surgery + Compound A 5 h post, day 3 of study",80.0 ± 2.2 g
same,Paw withdrawal threshold,"[2]; Compound A 30 mg/kg oral 1 h pre surgery + Compound A 5 h post, day 4 of study",77.5 ± 1.1 g
same,Paw withdrawal threshold,"[2]; Compound A 30 mg/kg oral 1 h pre surgery + Compound A 5 h post, day 6 of study",73.3 ± 3.1 g
same,Paw withdrawal threshold,"[2]; Compound A 30 mg/kg oral 1 h pre surgery + Compound A 5 h post, day 7 of study",70.8 ± 2.4 g
same,Paw withdrawal threshold,"[2]; Compound A 30 mg/kg oral 1 h pre surgery + Compound A 5 h post, pre-surgery (baseline)",101.7 ± 1.1 g
same,Paw withdrawal threshold,"[2]; Compound A 30 mg/kg oral 1 h pre surgery + vehicle 5 h post, day 1 of study",75.8 ± 2.4 g
same,Paw withdrawal threshold,"[2]; Compound A 30 mg/kg oral 1 h pre surgery + vehicle 5 h post, day 2 of study",69.2 ± 3.7 g
same,Paw withdrawal threshold,"[2]; Compound A 30 mg/kg oral 1 h pre surgery + vehicle 5 h post, day 3 of study",70.8 ± 2.0 g
same,Paw withdrawal threshold,"[2]; Compound A 30 mg/kg oral 1 h pre surgery + vehicle 5 h post, day 4 of study",67.5 ± 1.7 g
same,Paw withdrawal threshold,"[2]; Compound A 30 mg/kg oral 1 h pre surgery + vehicle 5 h post, day 6 of study",70.0 ± 2.2 g
same,Paw withdrawal threshold,"[2]; Compound A 30 mg/kg oral 1 h pre surgery + vehicle 5 h post, day 7 of study",65.0 ± 3.2 g
same,Paw withdrawal threshold,"[2]; Compound A 30 mg/kg oral 1 h pre surgery + vehicle 5 h post, pre-surgery (baseline)",105.0 ± 1.3 g
same,inhibition of hyperalgesia,[2]; single dose 1 h prior to surgery,significant inhibition of hyperalgesia only at 1 day post surgery
same,ipsilateral paw withdrawal threshold,[3]; day 1 of study,62.5 ± 2.1 g
same,ipsilateral paw withdrawal threshold,[3]; day 2 of study,68.3 ± 1.1 g

# Source: US20060178323A1, “Methods for the treatment of chronic pain and compositions therefor” (priority 2002, published 2006)
